Test results reported in US20230021483A1, “[…] […] METHOD AND CLASSIFICATION OF PHARMACEUTICAL COMPONENTS BY USING TRANSCRIPTOMES” (National Institutes of Biomedical Innovation, Health and …, priority 2016, published 2023).

System: adjuvant-associated biological themes in LV, SP, LN
In short: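 Per-mouse whole-organ transcriptomes; genes with eij/ei(c)>2.0 tested for theme enrichment via TargetMine (GO, KEGG, Reactome, others), Fisher's exact test, Holm-Bonferroni correction. Themes shared by all three mice kept at p<0.05, using the smallest p. Score per adjuvant-associated term = Σ−log(p) of matching themes.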

D35: A class CpG ODN (5′-GGTGCATCGATGCAGGGGGG-3′), TLR9 ligand (DNA GGTGCATCGATGCAGGGGGG; chemistry not given here)
tissue damage-associated annotations (cell death, wounding) in LNs (LN, i.d., fold change >2): did not induce cell death and wounding in LNs | GO annotation: Cytokine-cytokine receptor interaction (Term: cytokine) (LV, ID): 0 | GO annotation: Cytokine-cytokine receptor interaction|Endocytosis (Term: cytokine) (LV, ID): 5.2 | GO annotation: I-kappaB kinase/NF-kappaB signaling (Term: NF-kappa B signaling pathway) (LV, ID): 0 | GO annotation: NF-kappa B signaling pathway (Term: NF-kappa B signaling pathway) (LV, ID): 5.27 | GO annotation: TNF signaling pathway (Term: TNF signaling pathway) (LV, ID): 12.1 | GO annotation: activation of immune response (Term: immune response) (LV, ID): 0 | GO annotation: activation of innate immune response (Term: innate immune response) (LV, ID): 0 | GO annotation: acute inflammatory response (Term: inflammatory response) (LV, ID): 0 | GO annotation: adaptive immune response (Term: adaptive immune response) (LV, ID): 0 | GO annotation: apoptotic process (Term: apoptosis) (LV, ID): 0 | GO annotation: apoptotic signaling pathway (Term: apoptosis) (LV, ID): 0 | GO annotation: cell chemotaxis (Term: chemotaxis) (LV, ID): 4.51 | GO annotation: cell death (Term: cell death) (LV, ID): 5.7 | GO annotation: cell migration (Term: migration) (LV, ID): 0 | GO annotation: cellular response to cytokine stimulus (Term: cytokine) (LV, ID): 3.28 | GO annotation: cellular response to interferon-alpha (Term: IFN alpha) (LV, ID): 0 | GO annotation: cellular response to stress (Term: stress) (LV, ID): 0 | GO annotation: chemokine production (Term: chemokine) (LV, ID): 0 | GO annotation: chemokine-mediated signaling pathway (Term: chemokine) (LV, ID): 0 | GO annotation: chemotaxis (Term: chemotaxis) (LV, ID): 0 | GO annotation: cytokine biosynthetic process (Term: cytokine) (LV, ID): 0 | GO annotation: cytokine metabolic process (Term: cytokine) (LV, ID): 0 | GO annotation: cytokine production (Term: cytokine) (LV, ID): 0 | GO annotation: cytokine secretion (Term: cytokine) (LV, ID): 0 | GO annotation: cytokine-mediated signaling pathway (Term: cytokine) (LV, ID): 0 | GO annotation: death (Term: cell death) (LV, ID): 0 | GO annotation: defense response (Term: defense response) (LV, ID): 5.76 | GO annotation: defense response to Gram-positive bacterium (Term: defense response) (LV, ID): 0 | GO annotation: defense response to bacterium (Term: defense response) (LV, ID): 0 | GO annotation: defense response to other organism (Term: defense response) (LV, ID): 0 | GO annotation: defense response to protozoan (Term: defense response) (LV, ID): 0 | GO annotation: defense response to virus (Term: defense response) (LV, ID): 0 | GO annotation: granulocyte chemotaxis (Term: chemotaxis) (LV, ID): 0 | GO annotation: granulocyte migration (Term: migration) (LV, ID): 0 | GO annotation: immune response (Term: immune response) (LV, ID): 0 | GO annotation: immune response-activating signal transduction (Term: immune response) (LV, ID): 0 | GO annotation: immune response-regulating signaling pathway (Term: immune response) (LV, ID): 0 | GO annotation: inflammatory response (Term: inflammatory response) (LV, ID): 0 | GO annotation: innate immune response (Term: innate immune response) (LV, ID): 0 | GO annotation: innate immune response-activating signal transduction (Term: innate immune response) (LV, ID): 0 | GO annotation: interferon-alpha production (Term: IFN alpha) (LV, ID): 0 | GO annotation: intrinsic apoptotic signaling pathway (Term: apoptosis) (LV, ID): 0 | GO annotation: leukocyte chemotaxis (Term: chemotaxis) (LV, ID): 0 | GO annotation: leukocyte migration (Term: migration) (LV, ID): 0 | GO annotation: leukocyte migration involved in inflammatory response (Term: inflammatory response) (LV, ID): 0 | GO annotation: lymphocyte chemotaxis (Term: chemotaxis) (LV, ID): 0 | GO annotation: lymphocyte migration (Term: migration) (LV, ID): 0 | GO annotation: myeloid leukocyte migration (Term: migration) (LV, ID): 0 | GO annotation: negative regulation of apoptotic process (Term: apoptosis) (LV, ID): 0 | GO annotation: negative regulation of cell death (Term: cell death) (LV, ID): 0 | GO annotation: negative regulation of cytokine production (Term: cytokine) (LV, ID): 0 | GO annotation: negative regulation of defense response (Term: defense response) (LV, ID): 0 | GO annotation: negative regulation of immune response (Term: immune response) (LV, ID): 0 | GO annotation: negative regulation of innate immune response (Term: innate immune response) (LV, ID): 0 | GO annotation: negative regulation of programmed cell death (Term: cell death) (LV, ID): 0 | GO annotation: neutrophil chemotaxis (Term: chemotaxis) (LV, ID): 0 | GO annotation: neutrophil migration (Term: migration) (LV, ID): 0 | GO annotation: positive regulation of I-kappaB kinase/NF-kappaB signaling (Term: NF-kappa B signaling pathway) (LV, ID): 0 | GO annotation: positive regulation of adaptive immune response (Term: adaptive immune response) (LV, ID): 0 | GO annotation: positive regulation of apoptotic process (Term: apoptosis) (LV, ID): 3.18 | GO annotation: positive regulation of cell death (Term: cell death) (LV, ID): 0 | GO annotation: positive regulation of cell migration (Term: migration) (LV, ID): 0 | GO annotation: positive regulation of chemokine production (Term: chemokine) (LV, ID): 0 | GO annotation: positive regulation of chemotaxis (Term: chemotaxis) (LV, ID): 0 | GO annotation: positive regulation of cytokine biosynthetic process (Term: cytokine) (LV, ID): 0 | GO annotation: positive regulation of cytokine production (Term: cytokine) (LV, ID): 0 | GO annotation: positive regulation of defense response (Term: defense response) (LV, ID): 0 | GO annotation: positive regulation of immune response (Term: immune response) (LV, ID): 0 | GO annotation: positive regulation of inflammatory response (Term: inflammatory response) (LV, ID): 0 | GO annotation: positive regulation of innate immune response (Term: innate immune response) (LV, ID): 0 | GO annotation: positive regulation of interferon-alpha production (Term: IFN alpha) (LV, ID): 0 | GO annotation: positive regulation of leukocyte chemotaxis (Term: chemotaxis) (LV, ID): 0 | GO annotation: positive regulation of leukocyte migration (Term: migration) (LV, ID): 0 | GO annotation: positive regulation of programmed cell death (Term: cell death) (LV, ID): 3.05 | GO annotation: positive regulation of response to wounding (Term: wounding) (LV, ID): 0 | GO annotation: positive regulation of tumor necrosis factor superfamily cytokine (Term: cytokine) (LV, ID): 0 | GO annotation: production of molecular mediator of immune response (Term: immune response) (LV, ID): 0 | GO annotation: programmed cell death (Term: cell death) (LV, ID): 0 | GO annotation: regulation of I-kappaB kinase/NF-kappaB signaling (Term: NF-kappa B signaling pathway) (LV, ID): 0 | GO annotation: regulation of adaptive immune response (Term: adaptive immune response) (LV, ID): 0 | GO annotation: regulation of apoptotic process (Term: apoptosis) (LV, ID): 0 | GO annotation: regulation of apoptotic signaling pathway (Term: apoptosis) (LV, ID): 0 | GO annotation: regulation of cell death (Term: cell death) (LV, ID): 0 | GO annotation: regulation of cell migration (Term: migration) (LV, ID): 0 | GO annotation: regulation of chemokine production (Term: chemokine) (LV, ID): 0 | GO annotation: regulation of chemotaxis (Term: chemotaxis) (LV, ID): 0 | GO annotation: regulation of cytokine biosynthetic process (Term: cytokine) (LV, ID): 0 | GO annotation: regulation of cytokine production (Term: cytokine) (LV, ID): 0 | GO annotation: regulation of defense response (Term: defense response) (LV, ID): 0 | GO annotation: regulation of defense response to virus (Term: defense response) (LV, ID): 0 | GO annotation: regulation of defense response to virus by host (Term: defense response) (LV, ID): 0 | GO annotation: regulation of immune response (Term: immune response) (LV, ID): 0 | GO annotation: regulation of inflammatory response (Term: inflammatory response) (LV, ID): 0 | GO annotation: regulation of innate immune response (Term: innate immune response) (LV, ID): 0 | GO annotation: regulation of interferon-alpha production (Term: IFN alpha) (LV, ID): 0 | GO annotation: regulation of intrinsic apoptotic signaling pathway (Term: apoptosis) (LV, ID): 0 | GO annotation: regulation of leukocyte chemotaxis (Term: chemotaxis) (LV, ID): 0 | GO annotation: regulation of leukocyte migration (Term: migration) (LV, ID): 0 | GO annotation: regulation of programmed cell death (Term: cell death) (LV, ID): 0 | GO annotation: regulation of response to stress (Term: stress) (LV, ID): 0 | GO annotation: regulation of response to wounding (Term: wounding) (LV, ID): 0 | GO annotation: regulation of tumor necrosis factor superfamily cytokine production (Term: cytokine) (LV, ID): 0 | GO annotation: response to cytokine (Term: cytokine) (LV, ID): 8.12 | GO annotation: response to interferon-alpha (Term: IFN alpha) (LV, ID): 0 | GO annotation: response to stress (Term: stress) (LV, ID): 9.13 | GO annotation: response to wounding (Term: wounding) (LV, ID): 0 | GO annotation: taxis (Term: chemotaxis) (LV, ID): 0 | GO annotation: tumor necrosis factor superfamily cytokine production (Term: cytokine) (LV, ID): 0 | IFN beta: cellular response to interferon-beta (LV, ID): 0 | IFN beta: interferon-beta production (LV, ID): 0 | IFN beta: positive regulation of interferon-beta production (LV, ID): 0 | IFN beta: regulation of interferon-beta production (LV, ID): 0 | IFN beta: response to interferon-beta (LV, ID): 0 | IFN gamma: cellular response to interferon-gamma (LV, ID): 0 | IFN gamma: interferon-gamma production (LV, ID): 0 | IFN gamma: regulation of interferon-gamma production (LV, ID): 0 | IFN gamma: response to interferon-gamma (LV, ID): 0 | interleukin-6: interleukin-6 production (LV, ID): 0 | interleukin-6: positive regulation of interleukin-6 production (LV, ID): 0 | interleukin-6: regulation of interleukin-6 production (LV, ID): 0 | interleukin-12: interleukin-12 production (LV, ID): 0 | interleukin-12: positive regulation of interleukin-12 production (LV, ID): 0 | interleukin-12: regulation of interleukin-12 production (LV, ID): 0 | GO annotation: adaptive immune response based on somatic recombination of immune receptors built from immunoglobulin superfamily domains (Term: adaptive immune response) (mouse, in vivo): 0 | GO annotation: regulation of adaptive immune response based on somatic recombination of immune receptors built from immunoglobulin superfamily domains (Term: adaptive immune response) (mouse, in vivo): 0
